Data reported in ChEMBL document CHEMBL2021851, “Synthesis and SAR studies of imidazo-[1,2-a]-pyrazine Aurora kinase inhibitors with improved off-target kinase selectivity” (Bioorg Med Chem Lett, 2012).

Columns and labels:
Aurora kinase A = target: T1, Aurora kinase A (Homo sapiens, UniProt O14965); assay: Inhibition of aurora A kinase using 5TAMRA-GRTGRRNSICOOH as substrate by fluorescent assay
T1 sequence (O14965 whole entry): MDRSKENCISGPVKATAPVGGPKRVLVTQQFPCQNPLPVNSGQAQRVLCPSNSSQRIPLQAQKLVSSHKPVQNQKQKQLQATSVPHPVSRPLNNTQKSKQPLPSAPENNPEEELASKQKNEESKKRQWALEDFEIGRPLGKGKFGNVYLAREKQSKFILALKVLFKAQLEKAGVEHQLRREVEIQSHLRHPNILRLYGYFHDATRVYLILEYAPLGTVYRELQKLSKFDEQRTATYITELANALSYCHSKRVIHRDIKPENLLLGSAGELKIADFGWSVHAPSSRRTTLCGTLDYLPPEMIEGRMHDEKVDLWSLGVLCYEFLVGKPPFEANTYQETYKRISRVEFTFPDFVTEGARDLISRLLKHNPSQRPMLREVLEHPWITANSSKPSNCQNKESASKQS

[1] = target: T2, Interleukin-1 receptor-associated kinase 4 (Homo sapiens, UniProt Q9NWZ3); assay: Inhibition of IRAK4
T2 sequence (Q9NWZ3 whole entry): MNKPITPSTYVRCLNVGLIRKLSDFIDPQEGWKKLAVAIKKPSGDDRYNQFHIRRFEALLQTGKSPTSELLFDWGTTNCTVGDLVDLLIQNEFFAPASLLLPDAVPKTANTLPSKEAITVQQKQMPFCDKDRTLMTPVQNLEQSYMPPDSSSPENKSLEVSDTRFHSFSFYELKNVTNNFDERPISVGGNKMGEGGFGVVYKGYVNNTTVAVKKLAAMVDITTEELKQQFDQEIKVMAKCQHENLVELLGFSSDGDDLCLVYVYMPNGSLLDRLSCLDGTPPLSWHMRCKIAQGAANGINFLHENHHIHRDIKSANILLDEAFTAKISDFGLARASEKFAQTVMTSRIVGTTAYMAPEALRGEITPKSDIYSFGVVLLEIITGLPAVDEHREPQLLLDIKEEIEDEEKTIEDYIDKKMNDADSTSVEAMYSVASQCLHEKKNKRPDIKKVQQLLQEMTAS

[2] = target: T3, Serine/threonine-protein kinase Chk1 (Homo sapiens, UniProt O14757); assay: Inhibition of Chk1
T3 sequence (O14757 whole entry): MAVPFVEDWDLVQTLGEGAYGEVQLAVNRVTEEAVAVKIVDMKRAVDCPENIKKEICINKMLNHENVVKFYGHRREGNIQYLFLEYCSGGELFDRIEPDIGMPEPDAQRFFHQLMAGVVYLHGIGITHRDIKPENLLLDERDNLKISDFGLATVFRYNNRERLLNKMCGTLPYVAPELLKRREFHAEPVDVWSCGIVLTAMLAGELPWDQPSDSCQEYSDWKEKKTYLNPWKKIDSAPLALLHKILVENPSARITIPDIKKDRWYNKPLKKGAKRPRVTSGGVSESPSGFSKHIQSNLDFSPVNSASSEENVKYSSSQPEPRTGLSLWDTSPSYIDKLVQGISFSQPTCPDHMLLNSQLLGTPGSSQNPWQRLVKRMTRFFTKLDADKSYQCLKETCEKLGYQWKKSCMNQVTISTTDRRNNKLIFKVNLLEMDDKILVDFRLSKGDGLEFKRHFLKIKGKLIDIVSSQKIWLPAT

Aurora kinase B [3] = target: T4, Aurora kinase B (Homo sapiens, UniProt Q96GD4); assay: Inhibition of aurora B kinase in human HCT116 cells assessed as inhibition of histone H3 phosphorylation incubated for 1 hr by Hoechst 33342 staining based microscopic analysis; type: cell-based, HCT-116
[4] = target: Vascular endothelial growth factor receptor 2 (Homo sapiens, UniProt P35968); assay: Inhibition of VEGFR2
[5] = target: Tyrosine-protein kinase Lck (Homo sapiens, UniProt P06239); assay: Inhibition of LCK
Aurora kinase B [6] = target: T4, Aurora kinase B; assay: Inhibition of aurora B kinase using 5TAMRA-GRTGRRNSICOOH as substrate by fluorescent assay
[7] = target: Ribosomal protein S6 kinase alpha-3 (Homo sapiens, UniProt P51812); assay: Inhibition of RSK2
Chain of Ribosomal protein S6 kinase alpha-3 (P51812 whole entry): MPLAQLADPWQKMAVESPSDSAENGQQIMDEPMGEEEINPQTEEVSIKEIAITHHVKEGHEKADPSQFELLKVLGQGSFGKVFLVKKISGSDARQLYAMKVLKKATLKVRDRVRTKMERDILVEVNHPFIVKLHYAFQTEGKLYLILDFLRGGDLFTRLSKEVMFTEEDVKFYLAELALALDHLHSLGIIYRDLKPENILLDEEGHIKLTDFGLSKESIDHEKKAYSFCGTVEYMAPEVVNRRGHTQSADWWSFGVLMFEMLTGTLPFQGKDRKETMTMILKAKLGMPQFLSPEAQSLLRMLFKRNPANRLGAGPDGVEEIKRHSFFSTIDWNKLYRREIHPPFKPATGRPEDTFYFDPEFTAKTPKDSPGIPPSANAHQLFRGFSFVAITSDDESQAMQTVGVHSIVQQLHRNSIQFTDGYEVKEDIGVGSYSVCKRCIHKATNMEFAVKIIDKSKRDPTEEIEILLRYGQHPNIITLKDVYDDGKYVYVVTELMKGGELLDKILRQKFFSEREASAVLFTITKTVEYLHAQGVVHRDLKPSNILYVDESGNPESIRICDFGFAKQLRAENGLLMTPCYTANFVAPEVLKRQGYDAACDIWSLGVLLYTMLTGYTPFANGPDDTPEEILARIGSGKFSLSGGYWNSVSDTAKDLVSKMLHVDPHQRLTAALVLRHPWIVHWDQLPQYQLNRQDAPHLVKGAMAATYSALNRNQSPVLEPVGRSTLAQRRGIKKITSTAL

T4 sequence (Q96GD4 whole entry): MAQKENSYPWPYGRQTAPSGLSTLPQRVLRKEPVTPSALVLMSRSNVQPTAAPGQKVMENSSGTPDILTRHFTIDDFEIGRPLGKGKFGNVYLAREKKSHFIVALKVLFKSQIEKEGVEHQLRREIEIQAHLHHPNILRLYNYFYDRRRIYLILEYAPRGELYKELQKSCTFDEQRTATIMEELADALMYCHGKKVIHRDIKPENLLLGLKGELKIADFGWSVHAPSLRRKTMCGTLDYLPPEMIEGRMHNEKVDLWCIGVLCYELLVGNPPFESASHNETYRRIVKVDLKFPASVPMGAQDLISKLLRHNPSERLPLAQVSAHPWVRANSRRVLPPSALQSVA
Chain of Vascular endothelial growth factor receptor 2 (P35968 whole entry): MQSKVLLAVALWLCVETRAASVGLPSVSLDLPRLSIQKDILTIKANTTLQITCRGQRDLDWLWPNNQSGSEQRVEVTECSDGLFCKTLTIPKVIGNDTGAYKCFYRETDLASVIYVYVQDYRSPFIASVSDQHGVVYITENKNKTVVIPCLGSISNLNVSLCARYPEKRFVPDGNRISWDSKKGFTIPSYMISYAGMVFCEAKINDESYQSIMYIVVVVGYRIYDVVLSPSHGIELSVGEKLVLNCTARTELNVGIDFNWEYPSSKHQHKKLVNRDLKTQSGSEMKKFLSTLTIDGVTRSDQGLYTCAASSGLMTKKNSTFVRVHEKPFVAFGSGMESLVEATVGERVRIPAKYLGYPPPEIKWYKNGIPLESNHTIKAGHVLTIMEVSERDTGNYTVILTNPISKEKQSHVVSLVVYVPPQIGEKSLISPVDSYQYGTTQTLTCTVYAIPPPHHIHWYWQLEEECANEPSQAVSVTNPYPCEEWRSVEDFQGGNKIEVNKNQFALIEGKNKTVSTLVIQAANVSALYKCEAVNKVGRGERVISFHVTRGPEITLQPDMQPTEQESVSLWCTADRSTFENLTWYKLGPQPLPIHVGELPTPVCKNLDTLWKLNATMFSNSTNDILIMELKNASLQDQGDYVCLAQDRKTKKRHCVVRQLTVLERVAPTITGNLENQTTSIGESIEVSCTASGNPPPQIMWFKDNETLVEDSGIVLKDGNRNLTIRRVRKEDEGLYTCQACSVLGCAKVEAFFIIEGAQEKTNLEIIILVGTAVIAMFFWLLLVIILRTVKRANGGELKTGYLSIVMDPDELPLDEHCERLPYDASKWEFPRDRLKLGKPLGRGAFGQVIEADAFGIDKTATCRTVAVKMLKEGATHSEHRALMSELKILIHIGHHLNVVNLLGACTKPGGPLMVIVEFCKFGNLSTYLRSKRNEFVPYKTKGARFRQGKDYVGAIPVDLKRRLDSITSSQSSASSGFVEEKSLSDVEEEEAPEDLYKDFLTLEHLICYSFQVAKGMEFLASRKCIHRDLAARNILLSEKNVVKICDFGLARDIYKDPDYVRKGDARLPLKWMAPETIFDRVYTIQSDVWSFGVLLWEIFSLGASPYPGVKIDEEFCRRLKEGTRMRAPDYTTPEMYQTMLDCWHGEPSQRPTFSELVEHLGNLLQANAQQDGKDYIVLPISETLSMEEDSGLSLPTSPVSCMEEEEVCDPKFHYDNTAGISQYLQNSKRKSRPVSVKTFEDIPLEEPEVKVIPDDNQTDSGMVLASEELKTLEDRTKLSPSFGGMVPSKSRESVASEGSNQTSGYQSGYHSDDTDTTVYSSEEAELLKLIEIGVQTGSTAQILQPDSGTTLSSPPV
Chain of Tyrosine-protein kinase Lck (P06239 whole entry): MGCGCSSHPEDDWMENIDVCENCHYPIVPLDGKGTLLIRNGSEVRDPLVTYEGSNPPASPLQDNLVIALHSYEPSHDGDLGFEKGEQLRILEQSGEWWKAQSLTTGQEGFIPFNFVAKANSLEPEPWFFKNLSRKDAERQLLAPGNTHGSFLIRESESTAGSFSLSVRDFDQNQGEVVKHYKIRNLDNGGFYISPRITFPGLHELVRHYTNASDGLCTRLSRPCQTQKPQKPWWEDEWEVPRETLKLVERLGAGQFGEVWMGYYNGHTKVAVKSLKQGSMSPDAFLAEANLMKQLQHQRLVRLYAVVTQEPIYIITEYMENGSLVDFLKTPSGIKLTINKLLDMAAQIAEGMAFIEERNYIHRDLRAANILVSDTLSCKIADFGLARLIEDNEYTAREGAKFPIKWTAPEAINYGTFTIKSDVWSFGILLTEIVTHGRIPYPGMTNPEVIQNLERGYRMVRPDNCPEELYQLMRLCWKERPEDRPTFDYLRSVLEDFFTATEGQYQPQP

Row | SMILES | IC50 (Aurora kinase A) [nM] | IC50 [1] [nM] | IC50 [2] [nM] | EC50 (Aurora kinase B [3]) [nM] | IC50 [4] [nM] | IC50 [5] [nM] | IC50 (Aurora kinase B [6]) [nM] | IC50 [7] [nM]
1 | Cc1cn2c(-c3cnn(CC(=O)Nc4ccncc4)c3)cnc2c(Nc2cc(CN3CCCC(C)C3)ns2)n1 (stereo unspecified) | 12 | 1140 | 100 | 83 | 108 | 731 | ≤ 13 | 1100
2 | Cc1cn2c(-c3cnn(CC(=O)Nc4ccncc4F)c3)cnc2c(Nc2cc(CN3CCCC(C)C3)ns2)n1 (stereo unspecified) | < 4 | 1220 | 300 | 62 | 253 | 271 | ≤ 13 | 6800
